# What was measured:
# [1] = system: antibodies in sera from SARS patients (sera 1a, 1b, 2, 6, 37, 62, London, SARS-yellow, SARS-green); format: binding, human; parameters: Binding of serum 6 to linear peptides of protein X1 of SARS-CoV Urbani / Binding of serum 37 to linear peptides of protein X1 of SARS-CoV Urbani / Binding of serum 6 to looped/cyclic peptide (PEPSCAN-ELISA) / Binding of serum 37 to looped/cyclic peptide (PEPSCAN-ELISA) / Binding of serum 37 to looped/cyclic peptides of protein X1 of SARS-CoV Urbani / Binding of serum 6 to linear peptides of protein X2 / Binding of serum 37 to linear peptides of protein X2 / Binding of serum 37 to looped/cyclic peptides of protein X2 of SARS-CoV Urbani / Binding of serum 6 to linear peptides of protein M of SARS-CoV Urbani / Binding of serum 37 to linear peptides of protein M of SARS-CoV Urbani / Binding of serum 6 to looped/cyclic peptides of protein M of SARS-CoV Urbani / Binding of serum 37 to looped/cyclic peptides of protein M of SARS-CoV Urbani / Binding of serum 6 to linear peptides of protein X3 of SARS-CoV Urbani / Binding of serum 37 to linear peptides of protein X3 of SARS-CoV Urbani / Binding of serum 37 to looped/cyclic peptides of protein X3 of SARS-CoV Urbani / Binding of serum 6 to linear peptides of protein X4 of SARS-CoV Urbani / Binding of serum 37 to linear peptides of protein X4 of SARS-CoV Urbani / Binding of serum 37 to looped/cyclic peptides of protein X4 of SARS-CoV Urbani / Binding of serum 6 to linear peptides of protein X5 of SARS-CoV Urbani / Binding of serum 37 to linear peptides of protein X5 of SARS-CoV Urbani / Binding of serum 37 to looped/cyclic peptides of protein X5 of SARS-CoV Urbani / Binding of serum 6 to linear peptides of protein N of SARS-CoV Urbani / Binding of serum 37 to linear peptides of protein N of SARS-CoV Urbani / Binding of serum 6 to linear peptide (PEPSCAN-ELISA) / Binding of serum 1a to looped/cyclic peptides of protein N of SARS-CoV Urbani / Binding of serum 1b to looped/cyclic peptides of protein N of SARS-CoV Urbani / Binding of serum 2 to looped/cyclic peptides of protein N of SARS-CoV Urbani / Binding of serum 6 to looped/cyclic peptides of protein N of SARS-CoV Urbani / Binding of serum 37 to looped/cyclic peptides of protein N of SARS-CoV Urbani / Binding of serum 62 to looped/cyclic peptides of protein N of SARS-CoV Urbani / Binding of serum London to looped/cyclic peptides of protein N of SARS-CoV Urbani / Binding of serum SARS-green to looped/cyclic peptides of protein N of SARS-CoV Urbani: unit not given here
# [2] = system: rabbit serum obtained by immunizing a rabbit with the SARS-CoV strain Frankfurt 1; format: binding; parameters: Binding of a rabbit serum to linear peptides / Binding of a rabbit serum to looped peptides / Rabbit serum linear peptides / Rabbit serum looped peptides / Binding of a rabbit serum to linear peptides of protein N of SARS-CoV Urbani (Rabbit serum linear peptides) / Binding of a rabbit serum to looped/cyclic peptides of protein N of SARS-CoV Urbani (Rabbit serum looped peptides): unit not given here
# [3] = system: control sera (pooled serum of ten healthy LUMC hospital workers; commercial negative donor pooled serum from the Dutch bloodbank); format: binding, human; parameters: Binding of Control serum LUMC to linear peptides / Binding of Control serum Blood-bank to linear peptides / Binding of Control serum LUMC to looped peptides / Binding of Control Serum Blood-Bank to Looped peptides / Binding of Control serum LUMC to linear peptides of the protein M of SARS-CoV Urbani / Binding of Control serum Blood-bank to linear peptides of the protein M of SARS-CoV Urbani / Binding of Control serum LUMC to looped peptides of the protein M of SARS-CoV Urbani / Binding of Control Serum Blood-Bank to Looped peptides of the protein M of SARS-CoV Urbani: unit not given here
# [4] = system: recombinant human anti-SARS-CoV antibody 03-018; format: binding; parameters: Binding of antibody 03-018 to linear peptides of the N protein of SARS-CoV Urbani / Binding of antibody 03-018 to looped/cyclic peptides of the N protein of SARS-CoV Urbani: unit not given here
Sequence,Binding of serum 1a to linear peptides of protein N of SARS-CoV Urbani [1],Binding of serum 1a to looped/cyclic peptides of protein N of SARS-CoV Urbani [1],Binding of serum 1b to linear peptides of protein N of SARS-CoV Urbani [1],Binding of serum 1b to looped/cyclic peptides of protein N of SARS-CoV Urbani [1],Binding of serum 2 to linear peptides of protein N of SARS-CoV Urbani [1],Binding of serum 2 to looped/cyclic peptides of protein N of SARS-CoV Urbani [1],Binding of serum 6 to linear peptides of protein N of SARS-CoV Urbani [1],Binding of serum 6 to looped/cyclic peptides of protein N of SARS-CoV Urbani [1],Binding of serum 37 to linear peptides of protein N of SARS-CoV Urbani [1],Binding of serum 37 to looped/cyclic peptides of protein N of SARS-CoV Urbani [1],Binding of serum 62 to looped/cyclic peptides of protein N of SARS-CoV Urbani [1],Binding of serum London to looped/cyclic peptides of protein N of SARS-CoV Urbani [1],Binding of serum SARS-green to looped/cyclic peptides of protein N of SARS-CoV Urbani [1],Binding of serum SARS-yellow to looped/cyclic peptides of protein N of SARS-CoV Urbani [1],Binding of Control Serum Blood-Bank to Looped peptides [3],Binding of Control serum Blood-bank to linear peptides [3],Binding of Control serum LUMC to linear peptides [3],Binding of Control serum LUMC to looped peptides [3],Binding of antibody 03-018 to linear peptides of the N protein of SARS-CoV Urbani [4],Binding of antibody 03-018 to looped/cyclic peptides of the N protein of SARS-CoV Urbani [4],further results
MKELSPRWYFYYLGT,0.2,0.4,0.1,0.2,0.1,0.4,0.1,0.2,0.5,0.7,0.6,0.4,0.4,0.4,0.7,0.7,0.6,0.6,0.1,0.2,Binding of serum 62 to linear peptides of protein N of SARS-CoV Urbani [1]: 0.4; Binding of serum London to linear peptides of protein N of SARS-CoV Urbani [1]: 0.4; Binding of serum SARS-green to linear peptides of protein N of SARS-CoV Urbani [1]: 0.2; Binding of serum SARS-yellow to linear peptides of protein N of SARS-CoV Urbani [1]: 0.6; Binding of a rabbit serum to linear peptides of protein N of SARS-CoV Urbani (Rabbit serum linear peptides) [2]: 0.1; Binding of a rabbit serum to looped/cyclic peptides of protein N of SARS-CoV Urbani (Rabbit serum looped peptides) [2]: 0.4
PDDQIGYYRRATRRV,0.2,0.4,0.1,0.3,0.2,0.6,0.2,0.5,0.6,0.9,0.8,0.5,0.8,0.7,0.8,0.6,0.6,0.8,0.1,0.3,Binding of serum 62 to linear peptides of protein N of SARS-CoV Urbani [1]: 0.5; Binding of serum London to linear peptides of protein N of SARS-CoV Urbani [1]: 0.4; Binding of serum SARS-green to linear peptides of protein N of SARS-CoV Urbani [1]: 0.3; Binding of serum SARS-yellow to linear peptides of protein N of SARS-CoV Urbani [1]: 0.6; Recognition of the peptide by the rabbit serum [2]: recognized
SGKGQQQQGQTVTKK,–,0.3,–,0.2,–,0.3,–,0.3,–,0.6,0.5,0.4,0.2,0.3,0.6,1.0,1.1,0.6,0.1,0.2,Binding of serum 1a to linear peptide (PEPSCAN-ELISA) [1]: 0.3; Binding of serum 1b to linear peptide (PEPSCAN-ELISA) [1]: 0.1; Binding of serum 2 to linear peptide (PEPSCAN-ELISA) [1]: 0.2; Binding of serum 6 to linear peptide (PEPSCAN-ELISA) [1]: 0.4; Binding of serum 37 to linear peptide (PEPSCAN-ELISA) [1]: 0.7; Binding of serum 62 to linear peptide (PEPSCAN-ELISA) [1]: 0.9; Binding of serum London to linear peptide (PEPSCAN-ELISA) [1]: 0.6; Binding of serum SARS-green to linear peptide (PEPSCAN-ELISA) [1]: 0.5; Binding of serum SARS-yellow to linear peptide (PEPSCAN-ELISA) [1]: 0.7; Binding of a rabbit serum to linear peptides of protein N of SARS-CoV Urbani (Rabbit serum linear peptides) [2]: 0.2; Binding of a rabbit serum to looped/cyclic peptides of protein N of SARS-CoV Urbani (Rabbit serum looped peptides) [2]: 0.4
INTNSGPDDQIGYYR,0.3,0.4,0.2,0.3,0.2,0.4,0.2,0.2,0.9,0.7,0.5,0.4,0.5,0.5,0.6,0.8,0.7,0.7,0.1,0.2,Binding of serum 62 to linear peptides of protein N of SARS-CoV Urbani [1]: 0.7; Binding of serum London to linear peptides of protein N of SARS-CoV Urbani [1]: 0.4; Binding of serum SARS-green to linear peptides of protein N of SARS-CoV Urbani [1]: 0.2; Binding of serum SARS-yellow to linear peptides of protein N of SARS-CoV Urbani [1]: 0.7; Binding of a rabbit serum to linear peptides of protein N of SARS-CoV Urbani (Rabbit serum linear peptides) [2]: 0.2; Binding of a rabbit serum to looped/cyclic peptides of protein N of SARS-CoV Urbani (Rabbit serum looped peptides) [2]: 0.5

# Source: US20070128217A1 (priority 2003, published 2007)
